Measured values published in EP0488301A1, “New benzopyran compounds with pharmacological activity” (J. URIACH & CIA. S.A., priority 1990, dated 1992).
Read-outs that look alike come from different tables or passages of the source.

What was measured:
[1] = system: portal vein isolated from rat; assay: Test 1: Inhibition of the contraction induced by noradrenaline in portal vein isolated from rat; type: cell-based; conditions: contraction induced by noradrenaline (3µM), compounds incubated for 30 minutes, 50% inhibition versus the basal response, read-out: IC₅₀
Procedure: Test 1: Inhibition of the contraction induced by noradrenaline in portal vein isolated from rat.
Portal vein was extracted from adult male rats (between 200 and 250 g of body weight), which had been stunned by a blow in the head. Portal vein was installed into an isolated organ bath (Letica) containing a physiological saline solution (Hamilton et al., Br. J. Pharmacol., 1986, 88, 103-111) at 37 °C and a gas bubbler (5% CO₂ and 95% O₂). Contractions were induced by noradrenaline (3µM) and were reverted after thoroughly washing with physiological saline solution. Portal vein contraction was measured with an isometric force transducer and with an initial tension of 1 g. After two contractions with noradrenaline, performed in order to measure the tissue's basal response, the tested compounds were incubated for 30 minutes and a new contraction was induced. The concentration that produces a 50% inhibition (IC₅₀) versus the basal response was calculated.

[2] = system: Spontaneously hypertense rats; assay: Test 2: Lowering of the arterial pressure in conscious hypertense rats; type: in vivo, rat; conditions: dose which produces a decrease of 30 mm Hg of the systolic arterial pressure, 3 doses and 3 animals per dose; for ED (30 mmHg decrease): Rattus norvegicus, po, read-out: ED₃₀; for ED₃₀: p.o.
Procedure: Test 2: Lowering of the arterial pressure in conscious hypertense rats.
Spontaneously hypertense rats (between 200 and 250 g of body weight) of more than 8 weeks of age have been used. Diastolic and systolic arterial pressure of the rat was measured at the caudal artery using a special sphygnomanometer (Letica 5007 and 5007/4) attached to the animal's tail. To ensure rapid and reliable data, animals were placed in a heating plate at 37°C, with the aim to produce a vasodilatation that ensured a better fixation of the rat tail to the transducer chamber. During the experiment, rats are conscious and fixed to a clamp. The tested products were administered orally. Arterial pressure was measured every 30 minutes and 10 minutes before the administration of the tested compound. The ED₃₀ (dose which produces a decrease of 30 mm Hg of the systolic arterial pressure) was calculated for each compound, using 3 doses and 3 animals per dose.

[3] = system: trachea isolated from guinea pig; assay: Test 3: Direct relaxation of the trachea isolated from guinea pig; type: cell-based; conditions: Cavia porcellus, 50% of the maximum relaxation (relaxation induced by isoproterenol at 1x10⁻⁶ M), cumulative addition, read-out: EC₅₀
Procedure: Test 3 -Direct relaxation of the trachea isolated from guinea pig.
This test was performed according to the experimental model described by Emmerson, J. and Mackay, D. (J. Pharm. Pharmacol.,1979,31, 798). Tracheas were extracted from male guinea pigs of 400 g of body weight, which had been stunned by a blow in the head. Then, tracheas were cut in zigzag and placed into an isolated organ bath (Letica) containing Krebs-Henseleit solution at 37°C and were bubbled with carbogen (95% O₂ and 5% CO₂). The relaxation of the trachea was measured using an isometric force transducer. The basal tension was 0.5 g. The tested compounds were accumulatively added to the bath and the effective concentration which produces a 50% of the maximum relaxation (EC₅₀) was calculated.

Structure (SMILES) | IC50 ([1]; Rattus norvegicus, 0.5 h) [µM] | ED (30 mmHg decrease) [2] [mg/kg] | EC50 [3] [µM] | IC50 [1] [µM] | ED₃₀ [2] [mg/kg]
CC1(C)Oc2ccc(C#N)cc2[C@@H](NC(=O)[C@@H]2CCCN2C(=O)Oc2ccccc2)[C@@H]1O (mixture of isomers) [Compound 34, Trans 3,4-dihydro-2,2-dimethyl-3-hydroxy-4-[(2S)-1-phenoxycarbonyl-2-pyrrolidinylcarbonylamino]-2H-1-benzopyran-6-carbonitrile] | 2.5 | 3 | 2.5 | – | –
CC1(C)Oc2ccc(C#N)cc2[C@@H](NC(=O)[C@@H]2CCCN2C(=O)OCc2ccccc2)[C@@H]1O (mixture of isomers) [Compound 35, Trans 3,4-dihydro-2,2-dimethyl-3-hydroxy-4-[(2S)-1-benzyloxycarbonyl-2-pyrrolidinylcarbonylamino]-2H-1-benzopyran-6-carbonitrile] | – | 0.05 | 0.9 | – | –
COc1cccc(COC(=O)N2CCC[C@H]2C(=O)N[C@@H]2c3cc(C#N)ccc3OC(C)(C)[C@H]2O)c1 (mixture of isomers) [Compound 58, Trans 3,4-dihydro-2,2-dimethyl-3-hydroxy-4-[(2S)-1-[(3-methoxyphenyl)methyloxycarbonyl]-2-pyrrolidinylcarbonylamino)-2H-1-benzopyran-6-carbonitrile] | 0.5 | < 1 | – | – | –
CC1(C)Oc2ccc(C#N)cc2[C@@H](NC(=O)[C@@H]2CCCN2C(=O)OCc2cccc(Cl)c2)[C@@H]1O (mixture of isomers) [Compound 60, Trans 3,4-dihydro-2,2-dimethyl-3-hydroxy-4-[(2S)-1-[(3-chlorophenyl)methyloxycarbonyl]-2-pyrrolidinylcarbonylamino)-2H-1-benzopyran-6-carbonitrile] | 0.2 | < 0.5 | 0.1 | – | –
CC1(C)Oc2ccc(C#N)cc2[C@@H](NC(=S)N2CCCC2)[C@@H]1O (relative stereo) [Compound 1, Trans 3,4-dihydro-2,2-dimethyl-3-hydroxy-4-(1-pyrrolidinylthiocarbonylamino)-2H-1-benzopyran-6-carbonitrile] | 3.1 | > 3 | – | – | –
CC1(C)Oc2ccc(C#N)cc2[C@@H](NC(=S)N2CCCCC2)[C@@H]1O (relative stereo) [Compound 3, Trans 3,4-dihydro-2,2-dimethyl-3-hydroxy-4-(1-piperidinylthiocarbonylamino)-2H-1-benzopyran-6-carbonitrile] | 4.2 | 0.5 | 0.8 | – | –
CN1CCN(C(=S)N[C@@H]2c3cc(C#N)ccc3OC(C)(C)[C@H]2O)CC1 (relative stereo) [Compound 7, Trans 3,4-dihydro-2,2-dimethyl-3-hydroxy-4-(4-methyl-1-piperazinylthiocarbonylamino)-2H-1-benzopyran-6-carbonitrile] | 5.3 | 0.17 | 1.3 | – | –
CC(C)(C)OC(=O)N1CCCCC1C(=O)N[C@@H]1c2cc(C#N)ccc2OC(C)(C)[C@H]1O (relative stereo) [Compound 13, Trans 3,4-dihydro-2,2-dimethyl-3-hydroxy-4-(1-tert-butoxycarbonyl-2-piperidinylcarbonylamino)-2H-1-benzopyran-6-carbonitrile] | 31 | 0.18 | 6 | – | –
CC1(C)Oc2ccc(C#N)cc2[C@@H](NC(=O)C2CCCCN2C(=O)Oc2ccccc2)[C@@H]1O (relative stereo) [Compound 18, Trans 3,4-dihydro-2,2-dimethyl-3-hydroxy-4-(1-phenyloxycarbonyl-2-piperidinylcarbonylamino)-2H-1-benzopyran-6-carbonitrile] | 0.8 | 0.7 | 1 | – | –
CC1(C)Oc2ccc(C#N)cc2[C@@H](NC(=O)C2CCCCN2C(=O)OCc2ccccc2)[C@@H]1O (relative stereo) [Compound 19, Trans 3,4-dihydro-2,2-dimethyl-3-hydroxy-4-(1-benzyloxycarbonyl-2-piperidinylcarbonylamino)-2H-1-benzopyran-6-carbonitrile] | 0.8 | 0.7 | 4.5 | – | –
CC1(C)Oc2ccc(C#N)cc2[C@@H](NC(=O)C2CCCCC2)[C@@H]1O (relative stereo) [Compound 45, Trans 4-cyclohexylcarbonylamino-3,4-dihydro-2,2-dimethyl-3-hydroxy-2H-1-benzopyran-6-carbonitrile] | 3.5 | 0.65 | 0.4 | – | –
CC(C)COC(=O)N1CCC[C@H]1C(=O)N[C@@H]1c2cc(C#N)ccc2OC(C)(C)[C@H]1O (single isomer, unassigned) [33(A)] | – | – | – | > 10 | 0.3
CC(C)COC(=O)N1CCC[C@H]1C(=O)N[C@@H]1c2cc(C#N)ccc2OC(C)(C)[C@H]1O (single isomer, unassigned) [33(B)] | – | – | 9.1 | 0.3 | <0.1
CC(C)(C)OC(=O)N1CCC[C@H]1C(=O)N[C@H]1c2cc(C#N)ccc2OC(C)(C)[C@@H]1O [28(A), Trans (3R,4S)-3,4-dihydro-2,2-dimethyl-3-hydroxy-4-[(2S)-1-tert-butoxycarbonyl-2-pyrrolidinylcarbonylamino]-2H-1-benzopyran-6-carbonitrile] | > 10 | – | – | – | –
CC(C)(C)OC(=O)N1CCC[C@H]1C(=O)N[C@@H]1c2cc(C#N)ccc2OC(C)(C)[C@H]1O [28(B), Trans (3S,4R)-3,4-dihydro-2,2-dimethyl-3-hydroxy-4-[(2S)-1-tert-butoxycarbonyl-2-pyrrolidinylcarbonylamino]-2H-1-benzopyran-6-carbonitrile] | 2.6 | – | 4.8 | – | 1.0
CC1(C)Oc2ccc(C#N)cc2[C@H](NC(=O)[C@@H]2CCCN2C(=O)OCc2ccccc2)[C@H]1O [35(A), Trans (3R,4S)-3,4-dihydro-2,2-dimethyl-3-hydroxy-4-[(2S)-1-benzyloxy-carbonyl-2-pyrrolidinylcarbonylamino]-2H-1-benzopyran-6-carbonitrile] | 2.4 | – | – | – | –
CC1(C)Oc2ccc(C#N)cc2[C@@H](NC(=O)[C@@H]2CCCN2C(=O)OCc2ccccc2)[C@@H]1O [35(B), Trans (3S,4R)-3,4-dihydro-2,2-dimethyl-3-hydroxy-4-[(2S)-1-benzyloxy-carbonyl-2-pyrrolidinylcarbonylamino]-2H-1-benzopyran-6-carbonitrile] | 0.2 | – | – | – | –
